Experimental data from patent US20120141461A1, “COMPOSITIONS AND METHODS FOR DIAGNOSING AND TREATING FIBROTIC DISORDERS” (THE REGENTS OF THE UNIVERSITY OF MICHIGAN, priority 2009, published 2012).

B1: catalase: an enzyme which reduces H2O2 to H2O (protein, UniProt P04040 2-527, looked up)
Catalase: ADSRDPASDQMQHWKEQRAAQKADVLTTGAGNPVGDKLNVITVGPRGPLLVQDVVFTDEMAHFDRERIPERVVHAKGAGAFGYFEVTHDITKYSKAKVFEHIGKKTPIAVRFSTVAGESGSADTVRDPRGFAVKFYTEDGNWDLVGNNTPIFFIRDPILFPSFIHSQKRNPQTHLKDPDMVWDFWSLRPESLHQVSFLFSDRGIPDGHRHMNGYGSHTFKLVNANGEAVYCKFHYKTDQGIKNLSVEDAARLSQEDPDYGIRDLFNAIATGKYPSWTFYIQVMTFNQAETFPFNPFDLTKVWPHKDYPLIPVGKLVLNRNPVNYFAEVEQIAFDPSNMPPGIEASPDKMLQGRLFAYPDTHRHRLGPNYLHIPVNCPYRARVANYQRDGPMCMQDNQGGAPNYYPNSFGAPEQQPSALEHSIQYSGEVRRFNTANDDNVTQVRAFYVNVLNEEQRKRLCENIAGHLKDAQIFIQKKAVKNFTEVHPDYGSHIQALLDKYNAEKPKNAIHTFVQSGSHLAAREKANL

Legend:
C57BL/6 mice = assay: Murine model of bleomycin-induced lung injury/fibrosis; format: in vivo, mouse
Procedure: RNA was extracted and expression of NOX4 mRNA analyzed by real-time PCR; (b) C57BL/6 mice were administered intra-tracheal (IT) bleomycin on day 0.
C57BL/6J mice (6-8 weeks of age; Jackson Laboratories, Bar Harbor, Me.) were anesthetized with intraperitoneal injection of ketamine and xylazine. Intra-tracheal bleomycin (0.025 U) or FITC (4.67 mg/ml suspension in PBS) was administered to induce lung injury. The University of Michigan Committee on the Use and Care of Animals approved the animal protocols.
(§1) For in vitro RNAi, cells were transfected with single duplexes targeting NOX4 or non-targeting control siRNA (100 nM) using Lipofectamine-2000 reagent. For in vivo RNAi studies, NOX4 siRNA or control nontargeting siRNA (Dharmacon Inc.) were administered at a dose of ˜50 μg per mouse by intratracheal injection with bleomycin, FITC, or saline, in a total volume of 50 μl using a 26-gauge needle.
(§2) Cell lysates were prepared in RIPA buffer, subjected them to SDS-PAGE under reducing conditions and performed western immunoblotting as previously described (Horowitz et al. J Biol Chem 279, 1359-1367 (2004), herein incorporated by reference in its entirety).
Acid-soluble collagen was measured in cell culture supernatants or whole lung homogenates using the Sircol assay as previously described (Vittal et al. Am J Pathol 166, 367-375 (2005), herein incorporated by reference in its entirety).
Murine whole lungs were homogenized in PBS, then acidified (by adding an equal volume of 12 N HCl), hydrolyzed (by heating at 120° C. for 24 h), and processed samples for hydroxyline measurements as previously described 29. Lung histology and immunohistochemical staining Paraffin embedded tissue sections were processed for lung histology and immunohistochemical staining as previously described described (Vittal et al. Am J Pathol 166, 367-375 (2005), herein incorporated by reference in its entirety).

[1] = system: human fetal lung mesenchymal cells (hFLMCs); assay: TGF-β1-induced collagen gel contractility of hFLMCs in 3D-collagen matrices; format: cell-based; settings: catalase at 750 U/ml
Procedure: (§3) Collagen gels were reconstituted by mixing 1 part of 3 mg/ml neutralized rat tail collagen type 1 and two parts of cell suspension in serum-free media. Cell suspensions were seeded at a density of 200,000 cells per ml into 24-well tissue culture plates and allowed the gels to polymerize at 37° C. for 1 h before adding 1 ml of media. Gels were incubated overnight prior to treatments, and gently detached the edge of the gels from the walls of the well using a sterile spatula. Gels were photographed and gel area was measured using ImageJ (NIH) software.

[2] = system: human fetal lung mesenchymal cells (hFLMCs); assay: Myofibroblast differentiation markers in hFLMCs in 3D-collagen matrix, Western immunoblotting; format: cell-based; settings: catalase 750 U/ml, TGF-β1 2 ng/ml x 16 h
Procedure: as §3, §1, §2

[3] = DPI 1.6 mg/kg daily intra-peritoneal on days 8 to 21, day 21

Row | Molecule | protection from fibrosis, acid-soluble collagen in whole lung (C57BL/6 mice; DPI 1.6 mg/kg daily intra-peritoneal on days 8 to 21, Sircol assay on day 21) | expression of NOX4 and α-SMA expressing myofibroblasts (IHC) (C57BL/6 mice; [3]) | fibrosis by histopathology and Masson's trichrome staining for collagen (C57BL/6 mice; [3]) | TGF-β1-induced collagen gel contractility [1] | fibronectin synthesis induced by TGF-β1 [2] | upregulation of α-smooth muscle actin (α-SMA) induced by TGF-β1 [2]
1 | c1ccc2c(c1)[I+]c1ccccc1-2 [DPI, diphenyleneiodonium chloride] | significant protection from fibrosis | reduced expression | reduced fibrosis |  |  | 
2 | B1 |  |  |  | inhibited | inhibited | inhibited
